Patent US5656629A, “6-substituted pyrazolo (3,4-d)pyrimidin-4-ones and compositions and methods of use thereof” (Sanofi Winthrop, Inc., priority 1995, dated 1997)

Key:
[1] = test system: Spontaneously hypertensive rats (SHR); test: antihypertensive activity in conscious spontaneously hypertensive rats (mean arterial pressure); format: in vivo; conditions: Rattus norvegicus, SHR iv; for ED25: 5 min, 5 min after dose, cumulative dosing, read-out: ED25, change in mean arterial pressure
Description: After a 2 day recovery from surgery, three baseline blood pressure measurements were made at 5 min intervals in conscious SHR. Compounds to be tested or vehicle were then administered intravenously in a dose-dependent manner (0.3-10 mg base/kg) while arterial pressure was recorded continuously on a polygraph. The mean arterial pressure response was measured 5 minutes after the administration of each dose of the test compound and the next dose given in a cumulative dose fashion. The response to each dose of the test compound was calculated as the difference from the mean of the three baseline measurements.

cGMP-PDE V = target: T1, cGMP-PDE V (Homo sapiens, UniProt O76074); test: cGMP-PDE V inhibition (isozyme isolated from cardiovascular tissue); format: biochemical, various animal species and man; conditions: for inhibition at 0.1 µM / inhibition at 1 µM / inhibition at 10 µM / inhibition at 0.01 µM: read-out: Percent Inhibition cGMP-PDE V
T1 construct: isolated from cardiovascular tissues (heart and aorta); from tissue; host or cells: cardiovascular tissues (heart and aorta)
From the text: The cGMP-PDE and other PDE isozymes were isolated from cardiovascular tissues (heart and aorta) of various animal species and man by anion-exchange and affinity chromatography as described by Silver et al., Sec. Messeng. Phos. […] Cyclic Nucleotide Res. 10:69-92.

CCc1[nH]n(C2CCCC2)c2nc(Cc3ccc(OC(=O)c4ccc(CN(CC)CC)cc4)cc3)nc(=O)c1-2 [33(b), 1-cyclopentyl-3-ethyl-6-[4-[4-(diethylaminomethyl)phenylcarbonyloxy]phenylmethyl]pyrazolo[3,4-d]pyrimidin-4-one]
ED25 [1]: 9.3 mg/kg | change in vivo at 10 mg/kg [1]: -27% | inhibition at 0.1 µM (cGMP-PDE V): 56%

CCc1[nH]n(C2CCCC2)c2nc(Cc3ccccc3O)nc(=O)c1-2 [Example 30, 1-cyclopentyl-3-ethyl-6-(2-hydroxyphenylmethyl)pyrazolo[3,4-d]pyrimidin-4-one]
inhibition at 0.1 µM (cGMP-PDE V): 43% | inhibition at 1 µM (cGMP-PDE V; 1 μM): 73%

CCc1[nH]n(C2CCCC2)c2nc(Cc3ccc(N(C)C)cc3)nc(=O)c1-2 [Example 35, 1-cyclopentyl-3-ethyl-6-(4-dimethylaminophenylmethyl)pyrazolo[3,4-d]pyrimidin-4-one]
inhibition at 0.1 µM (cGMP-PDE V): 34% | inhibition at 1 µM (cGMP-PDE V; 1 μM): 53%

CCc1nn(C2CCCC2)c2nc(Cc3ccc(OCCN4CCOCC4)cc3)[nH]c(=O)c12 [10(b)]
change in vivo at 10 mg/kg [1]: -17% | IC50 (cGMP-PDE V): 270 nM

CCc1[nH]n(C2CCCC2)c2nc(Cc3ccncc3)nc(=O)c1-2 [4(b), 1-cyclopentyl-3-ethyl-6-(4-pyridinylmethyl)pyrazolo[3,4-d]pyrimidin-4-one]
IC50 (cGMP-PDE V): 650 nM

CCc1[nH]n(C2CCCC2)c2nc(CO)nc(=O)c1-2 [Example 17, 1-cyclopentyl-3-ethyl-6-(hydroxymethyl)pyrazolo[3,4-d]pyrimidin-4-one]
inhibition at 1 µM (cGMP-PDE V; 1 μM): 20% | inhibition at 10 µM (cGMP-PDE V; 10 μM): 61%

CCc1[nH]n(C2CCCC2)c2nc(Cc3ccccc3OC)nc(=O)c1-2 [27(b), 1-cyclopentyl-3-ethyl-6-(2-methoxyphenylmethyl)pyrazolo[3,4-d]pyrimidin-4-one]
inhibition at 0.1 µM (cGMP-PDE V): 25% | inhibition at 1 µM (cGMP-PDE V; 1 μM): 73%

CCc1[nH]n(C2CCCC2)c2nc(Cc3cccnc3)nc(=O)c1-2 [Example 13, 1-cyclopentyl-3-ethyl-6-[3-pyridinylmethyl]pyrazolo[3,4-d]pyrimidin-4-one]
IC50 (cGMP-PDE V): 660 nM

CCc1nn(C2CCCC2)c2nc(Cn3cccn3)[nH]c(=O)c12 [23(b), 1-cyclopentyl-3-ethyl-6-(1-pyrazolylmethyl)pyrazolo[3,4-d]pyrimidin-4-one]
inhibition at 1 µM (cGMP-PDE V; 1 μM): 33%

CCc1nn(C2CCCC2)c2nc(Cn3cnc4ccccc43)[nH]c(=O)c12 [12(b), 1-cyclopentyl-3-ethyl-6-[1-benzimidazolylmethyl]pyrazolo[3,4-d]pyrimidin-4-one]
inhibition at 0.1 µM (cGMP-PDE V): 17% | inhibition at 1 µM (cGMP-PDE V; 1 μM): 39%

CCc1[nH]n(C2CCCC2)c2nc(Cc3cccc(OC)c3)nc(=O)c1-2 [Example 19, 1-cyclopentyl-3-ethyl-6-(3-methoxyphenylmethyl)pyrazolo[3,4-d]pyrimidin-4-one]
ED25 [1]: 11 mg/kg | change in vivo at 10 mg/kg [1]: -21% | IC50 (cGMP-PDE V): 33 nM

CCc1[nH]n(C2CCCC2)c2nc(Cc3ccc(-n4ccnc4)cc3)nc(=O)c1-2 [36(b), 1-cyclopentyl-3-ethyl-6-[4-(1-imidazolyl)phenylmethyl]pyrazolo[3,4-d]pyrimidin-4-one]
inhibition at 0.1 µM (cGMP-PDE V): 26% | inhibition at 1 µM (cGMP-PDE V; 1 μM): 62%

CCc1[nH]n(C2CCCC2)c2nc(Cc3ccc(OC)c(OC)c3)nc(=O)c1-2 [3(b), 1-cyclopentyl-3-ethyl-6-(3,4-dimethoxyphenylmethyl)-pyrazolo[3,4-d)pyrimidin-4-one]
IC50 (cGMP-PDE V): 22 nM

CCc1[nH]n(C2CCCC2)c2nc(Cc3ccc(NS(C)(=O)=O)cc3)nc(=O)c1-2 [Example 29, 1-cyclopentyl-3-ethyl-6-[4-(methylsulfonylamino)phenylmethyl]pyrazolo[3,4-d]pyrimidin-4-one]
inhibition at 0.01 µM (cGMP-PDE V): 77% | inhibition at 0.1 µM (cGMP-PDE V): 94%

CCc1[nH]n(C2CCCC2)c2nc(Cc3c(C)noc3C)nc(=O)c1-2 [28(b), 1-cyclopentyl-3-ethyl-6-(3,5-dimethyl-4-isoxazolylmethyl)pyrazolo[3,4-d]pyrimidin-4-one]
inhibition at 1 µM (cGMP-PDE V; 1 μM): 48%

CCc1nn(C2CCCC2)c2nc(Cn3ccnc3)[nH]c(=O)c12 [18(b), 1-cyclopentyl-3-ethyl-6-(1-imidazolylmethyl)pyrazolo[3,4-d]pyrimidin-4-one]
inhibition at 1 µM (cGMP-PDE V; 1 μM): 33%

CCc1[nH]n(C2CCCC2)c2nc(Cc3ccccc3N)nc(=O)c1-2 [Example 34, 1-cyclopentyl-3-ethyl-6-(2-aminophenylmethyl)pyrazolo[3,4-d]pyrimidin-4-one]
inhibition at 0.1 µM (cGMP-PDE V): 45% | inhibition at 1 µM (cGMP-PDE V; 1 μM): 78%

CCc1[nH]n(C2CCCC2)c2nc(Cc3cccn3C)nc(=O)c1-2 [Example 22, 1-cyclopentyl-3-ethyl-6-(1-methyl-2-pyrrolylmethyl)pyrazolo[3,4-d]pyrimidin-4-one]
IC50 (cGMP-PDE V): 300 nM

CCc1[nH]n(C2CCCC2)c2nc(Cc3ccccn3)nc(=O)c1-2 [Example 9, 1-cyclopentyl-3-ethyl-6-(2-pyridinylmethyl)pyrazolo[3,4-d]pyrimidin-4-one]
IC50 (cGMP-PDE V): 540 nM

CCc1nn(C2CCCC2)c2nc(Cc3cccc(OCCN4CCOCC4)c3)[nH]c(=O)c12 [21(c), 1-cyclopentyl-3-ethyl-6-[3-[2-(4-morpholinyl)ethoxy]phenylmethyl]pyrazolo[3.4-d]pyrimidin-4-one]
IC50 (cGMP-PDE V): 420 nM

CCc1[nH]n(C2CCCC2)c2nc(Cc3cccc(O)c3)nc(=O)c1-2 [Example 20, 1-cyclopentyl-3-ethyl-6-(3-hydroxyphenylmethyl)pyrazolo[3,4-d]pyrimidin-4-one]
ED25 [1]: 10.1 mg/kg | change in vivo at 10 mg/kg [1]: -23% | IC50 (cGMP-PDE V): 86 nM

CCc1nn(C2CCCC2)c2nc(CN3CCCc4ccccc43)[nH]c(=O)c12 [16(b), 1-cyclopentyl-3-ethyl-6-(1,2,3,4-tetrahydro-1-quinolinylmethyl)pyrazolo[3,4-d]pyrimidin-4-one]
inhibition at 1 µM (cGMP-PDE V; 1 μM): 32% | inhibition at 10 µM (cGMP-PDE V; 10 μM): 90%

CCc1[nH]n(C2CCCC2)c2nc(Cc3ccsc3)nc(=O)c1-2 [Example 31, 1-cyclopentyl-3-ethyl-6-(3-thienylmethyl)pyrazolo[3,4-d]pyrimidin-4-one]
IC50 (cGMP-PDE V): 30 nM

CCc1[nH]n(C2CCCC2)c2nc(Nc3ccccc3)nc(=O)c1-2 [38(d), 1-cyclopentyl-3-ethyl-6-(phenylamino)pyrazolo[3,4-d]pyrimidin-4-one]
IC50 (cGMP-PDE V): 270 nM

CCc1nn(C2CCCC2)c2nc(Cn3cccc3)[nH]c(=O)c12 [Example 5, 1-cyclopentyl-3-ethyl-6-(1-pyrrolylmethyl)-pyrazolo[3,4-d]pyrimidin-4-one]
IC50 (cGMP-PDE V): 310 nM

Cc1[nH]n(C(C)(C)C)c2nc(Cc3ccccc3)nc(=O)c1-2 [37(d), 1-tert-butyl-3-methyl-6-(phenylmethyl)pyrazolo[3,4-d]pyrimidin-4-one]
inhibition at 0.1 µM (cGMP-PDE V): 36% | inhibition at 1 µM (cGMP-PDE V; 1 μM): 78%

CCc1[nH]n(C2CCCC2)c2nc(Cc3ccc(OCc4nnn[nH]4)cc3)nc(=O)c1-2 [11(b), 1-cyclopentyl-3-ethyl-6-[4-(5-tetrazolylmethoxy)phenylmethyl]pyrazolo[3,4-d]pyrimidin-4-one]
change in vivo at 10 mg/kg [1]: -4% | IC50 (cGMP-PDE V): 310 nM

CCc1[nH]n(C2CCCC2)c2nc(Oc3ccccc3)nc(=O)c1-2 [Example 39, 1-cyclopentyl-3-ethyl-6-(phenyloxy)pyrazolo[3,4-d]pyrimidin-4-one]
inhibition at 0.1 µM (cGMP-PDE V): 33% | inhibition at 1 µM (cGMP-PDE V; 1 μM): 74%

1-cyclopentyl-3-ethyl-6-[3,5-dimethylamino-4-hydroxyphenylmethyl]pyrazolo[3,4-d]pyrimidin-4-one [Example 14]
Percent Inhibition cGMP-PDE V (cGMP-PDE V; 1 μM): 28% | Percent Inhibition cGMP-PDE V (cGMP-PDE V; 10 μM): 77%

CCc1[nH]n(C2CCCC2)c2nc(Cc3ccc([N+](=O)[O-])cc3)nc(=O)c1-2 [25(a), 1-cyclopentyl-3-ethyl-6-(4-nitrophenylmethyl)pyrazolo[3,4-d]pyrimidin-4-one]
change in vivo at 10 mg/kg [1]: -5% | IC50 (cGMP-PDE V): 76 nM

CCc1[nH]n(C2CCCC2)c2nc(Cc3ccc(OCC(=O)O)cc3)nc(=O)c1-2 [8(b), 1-cyclopentyl-3-ethyl-6-[4-(carboxymethoxy)phenylmethyl]pyrazolo[3,4-d]pyrimidin-4-one]
IC50 (cGMP-PDE V): 1200 nM

CCc1[nH]n(C2CCCC2)c2nc(CN3CCc4ccccc4C3)nc(=O)c1-2 [15(c), 1-cyclopentyl-3-ethyl-6-(1,2,3,4-tetrahydro-2-isoquinolinylmethyl)pyrazolo[3,4-d]pyrimidin-4-one]
IC50 (cGMP-PDE V): 1770 nM

CCc1[nH]n(C2CCCC2)c2nc(Cc3ccc(C(F)(F)F)cc3)nc(=O)c1-2 [24(b), 1-cyclopentyl-3-ethyl-6-(4-trifluoromethylphenylmethyl) pyrazolo[3,4-d]pyrimidin-4-one]
change in vivo at 10 mg/kg [1]: -8% | IC50 (cGMP-PDE V): 180 nM

CCc1[nH]n(C2CCCC2)c2nc(Cc3cccs3)nc(=O)c1-2 [Example 32, 1-cyclopentyl-3-ethyl-6-(2-thienylmethyl)pyrazolo[3,4-d]pyrimidin-4-one]
inhibition at 0.01 µM (cGMP-PDE V): 24% | inhibition at 0.1 µM (cGMP-PDE V): 58% | inhibition at 1 µM (cGMP-PDE V; 1 μM): 89%
